The values that follow come from patent US7550451B2, “Progesterone receptor modulators with increased antigonadotropic activity for female birth control and hormone replacement therapy” (Bayer Schering Pharma AG, priority 2002, dated 2009).

One experiment concerns the target T1, Androgen receptor (Rattus norvegicus, UniProt P15207).
T1 construct: Prostate cytosol of the castrated rat; from tissue; host or cells: prostate cytosol of castrated rat
T1 sequence (P15207 1-902): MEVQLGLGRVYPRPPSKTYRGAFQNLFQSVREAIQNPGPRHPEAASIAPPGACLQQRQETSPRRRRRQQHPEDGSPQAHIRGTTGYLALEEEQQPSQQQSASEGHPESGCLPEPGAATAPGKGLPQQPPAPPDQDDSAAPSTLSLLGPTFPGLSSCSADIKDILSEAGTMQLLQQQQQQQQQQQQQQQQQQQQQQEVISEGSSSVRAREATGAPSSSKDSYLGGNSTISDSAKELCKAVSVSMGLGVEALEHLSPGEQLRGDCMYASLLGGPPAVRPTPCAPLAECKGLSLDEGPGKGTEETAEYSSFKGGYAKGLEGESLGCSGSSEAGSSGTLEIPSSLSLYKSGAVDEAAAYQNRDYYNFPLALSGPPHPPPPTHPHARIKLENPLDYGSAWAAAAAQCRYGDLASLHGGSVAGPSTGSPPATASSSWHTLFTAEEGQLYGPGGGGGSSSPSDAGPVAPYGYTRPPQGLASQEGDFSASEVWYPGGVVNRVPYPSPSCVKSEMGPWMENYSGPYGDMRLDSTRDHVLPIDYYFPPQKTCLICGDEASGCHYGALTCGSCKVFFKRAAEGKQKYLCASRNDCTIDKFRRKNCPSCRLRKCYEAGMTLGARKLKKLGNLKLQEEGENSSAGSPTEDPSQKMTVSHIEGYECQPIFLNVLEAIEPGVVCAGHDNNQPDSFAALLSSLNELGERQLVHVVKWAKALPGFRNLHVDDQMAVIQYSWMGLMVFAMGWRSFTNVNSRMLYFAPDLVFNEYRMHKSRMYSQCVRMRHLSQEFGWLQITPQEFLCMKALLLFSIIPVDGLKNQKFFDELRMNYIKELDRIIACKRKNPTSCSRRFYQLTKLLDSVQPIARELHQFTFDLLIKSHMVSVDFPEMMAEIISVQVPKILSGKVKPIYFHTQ
The experiment is described as follows: Receptor binding affinity, androgen receptor (competitive binding, 3H-metribolone). The settings on record: prostate cytosol of castrated rat; for AR relative molar binding affinity (RBA) a) against RU 1881: reference RU 1881 (metribolone); for AR relative molar binding affinity (RBA) b) against dihydrotestosterone (DHT): reference dihydrotestosterone. As to the method: The receptor binding affinity was determined by competitive binding of a specifically binding ^3H-labeled hormone (tracer) and the compound to be tested on receptors in the cytosol from animal target organs. In this case, receptor saturation and reaction equilibrium were sought.
The tracers and increasing concentrations of the compound to be tested (competitor) were co-incubated with the receptor-containing cytosol fraction at 0-4° C. over 18 hours. After separation of the unbonded tracer with carbon-dextran suspension, the receptor-bonded tracer portion was measured for each concentration, and the IC50 was determined from the concentration sequence. As a quotient of the IC50 values of the reference substance and the compound to be tested (×100%), the relative molar binding affinity (RBA) was calculated (RBA of the reference substance=100%).
Prostate cytosol of the castrated rat; prostates stored at −30° C.; buffer: TED with 10% glycerol as well as 2 μmol of triamcinolone acetonide. Tracer: ^3H-metribolone 4 nmol; reference substances: metribolone (RU 1881) or 5α-dihydrotestosterone.

The test system of another experiment is adult female rats. Briefly: Nidation-inhibiting test (antifertile effects in the perinidation phase). The settings on record: day 5-7 of pregnancy, rat. The class given is in vivo. As to the method: The determination of the progesterone-antagonistic activities was carried out on adult female rats in the nidation-inhibiting test. The principle of the test is described as follows: progesterone preserves pregnancy in all stages. An early-abortive action can accordingly be expected from competitive progesterone antagonists. Female rats (Schoe strain: WIST Tierzucht GmbH Schönwalde) with a weight of 180-200 g were subjected daily to a cycle control and paired up in proestrus. The beginning of pregnancy was determined by detecting sperm in the vaginal smear on the same day (=day 1 of pregnancy=d1 p.c.). From the 5th-7th day of pregnancy, the test substances were injected subcutaneously daily. On the 9th day, vaginal smears were taken, then the animals were autopsied and the uteri were prepared. The degeneration of implants and pathological, hemorrhagic and otherwise abnormal nidation sites were counted as abortions and are shown in Table 2.

The structures appear in SMILES notation.

As for `C[C@]12C[C@H](c3ccc(/C=N/O)cc3)C3=C4CCC(=O)C=C4CC[C@H]3[C@@H]1CC[C@@H]2O` [Example 1, 4-(17β-Hydroxy-3-oxoestra-4,9-dien-11β-yl)benzaldehyde-1(E)-oxime], on Androgen receptor, the “AR relative molar binding affinity (RBA) a) against RU 1881” value is listed as “a) 17%”. Further, the “AR relative molar binding affinity (RBA) b) against dihydrotestosterone (DHT)” value on Androgen receptor is “b) 24%”. Further, the “Rate of Animals with Complete Inhibition of Nidation” value was 0/5 in the experiment on adult female rats (1.0 mg/animal/day s.c.), 0/5 in the experiment with adult female rats (3.0 mg/animal/day s.c.) and 5/5 in the experiment with adult female rats (10.0 mg/animal/day s.c.).

In the case of `CC1(O)CCC2C3CCC4=CC(=O)CCC4=C3C(c3ccc(C=NO)cc3)CC21C` (stereo not drawn) [Example 2, 4-(17β-Hydroxy-17α-methyl-3-oxoestra-4,9-dien-11β-yl)benzaldehyde-1(E)-oxime], the “AR relative molar binding affinity (RBA) a) against RU 1881” value at Androgen receptor is listed as “a) 16%”. Further, the “AR relative molar binding affinity (RBA) b) against dihydrotestosterone (DHT)” value on Androgen receptor is “b) 23%”. Also, the “Rate of Animals with Complete Inhibition of Nidation” value in the experiment with adult female rats (0.03 mg/animal/day s.c.) is given as 0/4; with adult female rats (0.1 mg/animal/day s.c.), 0/5; in the experiment on adult female rats (0.3 mg/animal/day s.c.), 2/5; with adult female rats (1.0 mg/animal/day s.c.) it was 5/5.
